Laboratory results published in publication PMC9019100, “Development of NanoLuc-targeting protein degraders and a universal reporter system to benchmark tag-targeted degradation platforms” (Nature Communications, 2022).
pIC50: −log10 of the molar value. Where “and” joins values, the source holds several entries; their conditions need not be identical. Equal entries are not always repeated. Where two headings read alike, the source gives them in different places. Peptide text beside a SMILES is read from it. * marks the point of attachment. Cbz = O=C(OCc1ccccc1)*

Key:
[1] = target: T1, Halo-EGFP-NanoLuc-FKBP^F36V (H-E-N-F) fusion protein (UniProt P0A3G2+P62942+Q9GV45, A155T/A167V/A172T/A224E/A31E/A60N/A81I/C128F/C176G/D78G/E160K/E257K/F37V/F95D/H272N/I117V/K175M/K195N/K70R/L47V/L54V/L88M/L99Q/M102K/N193R/N227D/P142E/P291S/Q151K/Q38R/Q45L/S2A/S58T/T264A/V71I/Y165I/Y273L/Y87F); type: cell-based
T1 sequence (Q9GV45 other isoform, or with tags, fused parts or gaps with the stated changes): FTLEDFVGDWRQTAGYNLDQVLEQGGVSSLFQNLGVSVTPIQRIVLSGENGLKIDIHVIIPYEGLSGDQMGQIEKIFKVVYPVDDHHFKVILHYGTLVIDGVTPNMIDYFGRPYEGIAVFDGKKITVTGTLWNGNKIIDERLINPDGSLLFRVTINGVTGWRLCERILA
T1 sequence (P0A3G2 other isoform, or with tags, fused parts or gaps with the stated changes): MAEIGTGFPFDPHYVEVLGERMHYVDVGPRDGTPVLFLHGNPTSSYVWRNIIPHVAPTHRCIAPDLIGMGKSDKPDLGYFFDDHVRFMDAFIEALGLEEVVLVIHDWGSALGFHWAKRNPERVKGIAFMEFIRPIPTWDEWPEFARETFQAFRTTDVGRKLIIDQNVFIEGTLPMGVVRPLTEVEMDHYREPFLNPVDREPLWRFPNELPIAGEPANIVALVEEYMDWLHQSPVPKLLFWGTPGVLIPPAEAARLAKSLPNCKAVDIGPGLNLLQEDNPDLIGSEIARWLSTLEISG
T1 sequence (P62942 whole entry F37V, the tested form may be a part): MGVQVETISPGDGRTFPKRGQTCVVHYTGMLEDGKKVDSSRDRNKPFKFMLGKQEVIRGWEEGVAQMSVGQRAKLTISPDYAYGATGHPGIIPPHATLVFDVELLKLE

[2] = target: T1, Halo-EGFP-NanoLuc-FKBP^F36V (H-E-N-F) fusion protein; type: cell-based; conditions: 125-500 nM, 5 h
wild-type HT29 cells = test: Necroptosis assay (PI exclusion, flow cytometry), wild-type HT29 cells, TNF+SM+IDN; type: cell-based, human; conditions: sheet S5F
Procedure: To simulate necroptosis, cells were seeded into 96-well plates ±40 ng/mL doxycycline, to induce construct expression, and treated with 100 ng/mL FLAG-TNF (recombinant human, in-house), 500 nM compound A Smac mimetic (kindly gifted by TetraLogics Pharmaceuticals) and 5 μM IDN-6556 (Cayman) or 10 uM Z-VAD-fmk (Selleckchem) overnight (16–24 h). Degrader compounds or a DMSO vehicle control were added for 5 h, as stated in the Fig. legends. Cells were detached using Trypsin-EDTA (Merck) and resuspended in cell supernatants containing 10 μg/mL propidium iodide (PI). PI exclusion analysis was performed using an LSR II flow cytometer (Becton Dickinson, NJ) with 10,000 single-cell events per sample. Flow cytometry data were analysed using WEASEL version 2.7 software (Frank Battye).
Supplementary Figure 5. […]
NC4. Data are representative of N = 3 independent experiments. f-h. HT29 cells were stimulated with DMSO (control) or 500 nM of degrader for 5 hours before the addition of TNF (100 ng/mL) + Smac mimetic (compound A; 500 nM-1 µM) + caspase inhibitor; Emricasan (IDN) (5 µM), for 24 hours. Cell death was assessed by flow cytometric analysis of PI exclusion. N = 3 replicates (symbols) is shown, EB; mean ± SD. Data are representative of N = 3 independent experiments. i. Representative flow cytometry gating strategy. Source data are provided as a Source Data file.

[3] = target: recombinant NanoLuc enzyme (Oplophorus gracilirostris, UniProt Q9GV45, A31E/A60N/A81I/F95D/I117V/K70R/L54V/L99Q/M102K/N193R/P142E/Q151K/Q38R/Q45L/V71I/Y165I); type: biochemical; conditions: replicates
Sequence of recombinant NanoLuc enzyme (Q9GV45 other isoform, or with tags, fused parts or gaps with the stated changes): as the sequence (Q9GV45 other isoform, or with tags, fused parts or gaps with the stated changes) above

NanoLuc = conditions: read-out: IC50 against the enzymatic activity of NanoLuc; cited from earlier work
[4] = 62.5nM, sheet S3B, replicate wells
[5] = 250nM, sheet S3B, replicate wells
[6] = 500nM, sheet S3B, replicate wells
[7] = 1uM, sheet S3B, replicate wells

O=C(COCCOCCCCCCCl)NCCCCNc1cccc2c1C(=O)N(C1CCC(=O)NC1=O)C2=O (stereo not drawn) [HC2]
Blank corrected (470-80) [1, 4]: 420571 and 387799 and 422451 and 372874 | Fold Change [1, 4]: 29.7356 and 27.4185 and 29.8685 and 26.3633 | Blank corrected (470-80) [1, 5]: 400261 and 371225 and 406289 and 348754 | Fold Change [1, 5]: 28.2996 and 26.2467 and 28.7258 and 24.6579 | Blank corrected (470-80) [1, 6]: 327362 and 397295 and 324101 and 372826 | Fold Change [1, 6]: 23.1455 and 28.0899 and 22.9149 and 26.3599 | Blank corrected (470-80) [1, 7]: 379647 and 379271 and 373688 and 369126 | Fold Change [1, 7]: 26.8422 and 26.8156 and 26.4208 and 26.0983

O=C1CCC(N2C(=O)c3cccc(OCCOCCCCCCCl)c3C2=O)C(=O)N1 (stereo not drawn) [HC3]
Blank corrected (470-80) [1, 4]: 383533 and 318115 and 323446 and 301555 | Fold Change [1, 4]: 27.1169 and 22.4917 and 22.8686 and 21.3208 | Blank corrected (470-80) [1, 5]: 323125 and 344451 and 351301 and 328848 | Fold Change [1, 5]: 22.8459 and 24.3537 and 24.838 and 23.2505 | Blank corrected (470-80) [1, 6]: 366778 and 337071 and 347923 and 313983 | Fold Change [1, 6]: 25.9323 and 23.8319 and 24.5992 and 22.1995 | Blank corrected (470-80) [1, 7]: 388451 and 372097 and 370806 and 376397 | Fold Change [1, 7]: 27.4646 and 26.3084 and 26.2171 and 26.6124

CC(C)C[C@@H](C=O)NC(=O)[C@H](CC(C)C)NC(=O)[C@H](CC(C)C)NC(=O)OCc1ccccc1 [MG132] (Cbz-Leu-Leu-Leu-aldehyde)
Blank corrected Raw Data (470-80) ([1]; +dox, MG132 (10uM) alone (DMSO instead of PROTAC)): 83521 and 88764 and 88216 and 91215 | Fold Change ([1]; +dox, MG132 (10uM) alone (DMSO instead of PROTAC), fold of -dox well): 83.7723 and 89.0311 and 88.4814 and 91.4895

CCc1cccc(N(CC)C(=O)Cn2c(C(=O)NC3CCC(C(=O)NCCCCCCCC(=O)NCCCCCCOc4cccc5c4C(=O)N(C4CCC(=O)NC4=O)C5=O)CC3)cc3ccccc32)c1 (stereo not drawn) [NC3]
degradation of the H-E-N-F substrate protein by Western blot, comparison of NanoTACs [2]: consistently outperforming the first analogue NC1 | viable cells (PI exclusion) (wild-type HT29 cells; TNF+SM+IDN): 7.5 and 6.4 and 5.5 | viable cells (PI exclusion) (wild-type HT29 cells; Unt (no death stimulus)): 69.5 and 75.6 and 73.1

CCc1cccc(N(CC)C(=O)Cn2c(C(=O)NC3CCC(C(=O)NCCCCCCCC(=O)NCCCCNc4cccc5c4C(=O)N(C4CCC(=O)N(C)C4=O)C5=O)CC3)cc3ccccc32)c1 (stereo not drawn) [NC*]
NanoLuc luminescence, Blank corrected (470-80) ([1]; 62.5nM, 2h, replicate wells): 6632 and 6164 and 5786 | NanoLuc luminescence, Blank corrected (470-80) ([1]; 62.5nM, 4h, replicate wells): 6756 and 7430 and 5962 and 6824 | NanoLuc luminescence, Blank corrected (470-80) ([1]; 62.5nM, 6h, replicate wells): 6820 and 5574 and 6168 | NanoLuc luminescence, Blank corrected (470-80) ([1]; 62.5nM, 8h, replicate wells): 5136 and 5355 and 4609 | NanoLuc luminescence, Blank corrected (470-80) ([1]; 62.5nM, 10h, replicate wells): 4237 and 3067 and 4015 | NanoLuc luminescence, Blank corrected (470-80) ([1]; 250nM, 2h, replicate wells): 1984 and 2219 and 1857 | NanoLuc luminescence, Blank corrected (470-80) ([1]; 250nM, 4h, replicate wells): 1613 and 1684 and 1340 | NanoLuc luminescence, Blank corrected (470-80) ([1]; 250nM, 6h, replicate wells): 1527 and 1526 and 1826 and 1766 | NanoLuc luminescence, Blank corrected (470-80) ([1]; 250nM, 8h, replicate wells): 1602 and 1230 and 1627 | NanoLuc luminescence, Blank corrected (470-80) ([1]; 250nM, 10h, replicate wells): 919 and 829 and 1005 | NanoLuc luminescence, Blank corrected (470-80) ([1]; 500nM, 2h, replicate wells): 1232 and 850 and 1011 and 825 | NanoLuc luminescence, Blank corrected (470-80) ([1]; 500nM, 4h, replicate wells): 934 and 992 and 902 | NanoLuc luminescence, Blank corrected (470-80) ([1]; 500nM, 6h, replicate wells): 854 and 738 and 679 and 842 | NanoLuc luminescence, Blank corrected (470-80) ([1]; 500nM, 8h, replicate wells): 717 and 620 and 849 | NanoLuc luminescence, Blank corrected (470-80) ([1]; 500nM, 10h, replicate wells): 481 and 501 and 461

CCc1cccc(N(CC)C(=O)Cn2c(C(=O)N[C@H]3CC[C@H](C(=O)NCCCCCCCC(=O)O)CC3)cc3ccccc32)c1 [NanoLuc Inhibtor 2]
NanoLuc luminescence (enzyme activity remaining) ([3]; [uM] -0.30103 (log10 concentration)): 0.9 | NanoLuc luminescence (enzyme activity remaining) ([3]; [uM] -0.82391 (log10 concentration)): 1.5 (2×) and 1.6 | NanoLuc luminescence (enzyme activity remaining) ([3]; [uM] -1.34679 (log10 concentration)): 4.4 and 4.7 and 4.6 | NanoLuc luminescence (enzyme activity remaining) ([3]; [uM] -1.86967 (log10 concentration)): 23.6 and 24.5 and 24.3 | NanoLuc luminescence (enzyme activity remaining) ([3]; [uM] -2.39254 (log10 concentration)): 55.8 and 56.1 and 58 | NanoLuc luminescence (enzyme activity remaining) ([3]; [uM] -2.91542 (log10 concentration)): 74.8 and 76.4 and 76 | NanoLuc luminescence (enzyme activity remaining) ([3]; [uM] -3.4383 (log10 concentration)): 81.7 and 82.7 and 82.1

CCN(C(=O)Cn1c(C(=O)N[C@H]2CC[C@H](C(=O)NCCCCCCCC(=O)O)CC2)cc2sccc21)c1cccc(C)c1 [NanoLuc inhibitor 1]
pIC50 (NanoLuc): 7.51

CCc1cccc(N(CC)C(=O)Cn2c(C(=O)N[C@H]3CC[C@H](C(=O)NCCCCCCCC(=O)O)CC3)cc3ccccc32)c1 [NanoLuc inhibitor 2]
pIC50 (NanoLuc): 8.38
